Results from ChEMBL document CHEMBL3112491, “3-(5-)-Amino-o-diarylisoxazoles: regioselective synthesis and antitubulin activity” (2014).

Experiments:
Type in all cases: functional
[1] = system: NCI-H460; assay: Growth inhibition of human NCI-H460 cells after 48 hrs by sulforhodamine B assay; settings: NCI-H460, 48 h
[2] = system: IGROV-1; assay: Growth inhibition of human IGROV1 cells after 48 hrs by sulforhodamine B assay; settings: IGROV-1, 48 h
[3] = system: COLO 205; assay: Growth inhibition of human COLO205 cells after 48 hrs by sulforhodamine B assay; settings: COLO 205, 48 h
[4] = system: MCF7; assay: Growth inhibition of human MCF7 cells after 48 hrs by sulforhodamine B assay; settings: MCF7, 48 h
[5] = system: Paracentrotus lividus; assay: Antimitotic activity in sea urchin fertilized egg assessed as cleavage arrest treated at 8 to 20 mins post-fertilization measured at 2.5 to 5.5 hrs post-fertilization
[6] = system: KM12; assay: Growth inhibition of human KM12 cells after 48 hrs by sulforhodamine B assay; settings: KM12, 48 h
[7] = system: SK-MEL-5; assay: Growth inhibition of human SK-MEL-5 cells after 48 hrs by sulforhodamine B assay; settings: SK-MEL-5, 48 h
[8] = system: Paracentrotus lividus; assay: Antimitotic activity in sea urchin fertilized egg assessed as cleavage alteration treated at 8 to 20 mins post-fertilization measured at 2.5 to 5.5 hrs post-fertilization
[9] = system: PC-3; assay: Growth inhibition of human PC3 cells after 48 hrs by sulforhodamine B assay; settings: PC-3, 48 h
[10] = system: ACHN; assay: Growth inhibition of human ACHN cells after 48 hrs by sulforhodamine B assay
[11] = system: Paracentrotus lividus; assay: Microtubule destabilizing activity in sea urchin free-swimming blastula assessed as embryo spinning treated at 9 to 10 hrs post-fertilization measured after 0.15 to 15 hrs
[12] = system: HL-60(TB); assay: Growth inhibition of human HL-60(TB) cells after 48 hrs by sulforhodamine B assay; settings: HL-60, 48 h
[13] = system: HCT-116; assay: Growth inhibition of human HCT116 cells after 48 hrs by sulforhodamine B assay; settings: HCT-116, 48 h
[14] = system: BT-549; assay: Growth inhibition of human BT549 cells after 48 hrs by sulforhodamine B assay; settings: BT-549, 48 h
[15] = system: Malme-3M; assay: Growth inhibition of human MALME-3M cells after 48 hrs by sulforhodamine B assay
[16] = Growth inhibition of human Hs 578T cells after 48 hrs by sulforhodamine B assay
[17] = system: SR; assay: Growth inhibition of human SR cells after 48 hrs by sulforhodamine B assay
[18] = system: HT-29; assay: Growth inhibition of human HT-29 cells after 48 hrs by sulforhodamine B assay; settings: HT-29, 48 h
[19] = Growth inhibition of human UACC257 cells after 48 hrs by sulforhodamine B assay; settings: UACC-257, 48 h
[20] = system: NCI-H522; assay: Growth inhibition of human NCI-H522 cells after 48 hrs by sulforhodamine B assay; settings: NCI-H522, 48 h
[21] = system: SN12C; assay: Growth inhibition of human SN12C cells after 48 hrs by sulforhodamine B assay
[22] = system: MDA-MB-435; assay: Growth inhibition of human MDA-MB-435 cells after 48 hrs by sulforhodamine B assay; settings: MDA-MB-435, 48 h
[23] = system: SNB-75; assay: Growth inhibition of human SNB75 cells after 48 hrs by sulforhodamine B assay; settings: SNB-75, 48 h
[24] = system: MOLT-4; assay: Growth inhibition of human MOLT4 cells after 48 hrs by sulforhodamine B assay; settings: MOLT-4, 48 h
[25] = system: OVCAR-3; assay: Growth inhibition of human OVCAR3 cells after 48 hrs by sulforhodamine B assay; settings: OVCAR-3, 48 h
[26] = system: SF-295; assay: Growth inhibition of human SF295 cells after 48 hrs by sulforhodamine B assay; settings: SF-295, 48 h
[27] = system: A549; assay: Growth inhibition of human A549/ATCC cells after 48 hrs by sulforhodamine B assay; settings: A549, 48 h
[28] = Growth inhibition of human HCC2998 cells after 48 hrs by sulforhodamine B assay; settings: HCC 2998, 48 h
[29] = system: 786-0; assay: Growth inhibition of human 786-0 cells after 48 hrs by sulforhodamine B assay; settings: 786-0, 48 h
[30] = Growth inhibition of human OVCAR5 cells after 48 hrs by sulforhodamine B assay; settings: OVCAR-5, 48 h
[31] = system: U-251; assay: Growth inhibition of human U251 cells after 48 hrs by sulforhodamine B assay; settings: U-251, 48 h
[32] = system: HOP-62; assay: Growth inhibition of human HOP62 cells after 48 hrs by sulforhodamine B assay; settings: HOP-62, 48 h
[33] = Growth inhibition of human NCI-ADR-RES cells after 48 hrs by sulforhodamine B assay
[34] = system: UACC-62; assay: Growth inhibition of human UACC62 cells after 48 hrs by sulforhodamine B assay; settings: UACC-62, 48 h
[35] = system: SF-268; assay: Growth inhibition of human SF268 cells after 48 hrs by sulforhodamine B assay; settings: SF-268, 48 h
[36] = Growth inhibition of human UO31 cells after 48 hrs by sulforhodamine B assay; settings: UO-31, 48 h
[37] = Growth inhibition of human SF539 cells after 48 hrs by sulforhodamine B assay; settings: SF-539, 48 h
[38] = Growth inhibition of human HOP92 cells after 48 hrs by sulforhodamine B assay; settings: HOP-92, 48 h
[39] = Growth inhibition of human OVCAR4 cells after 48 hrs by sulforhodamine B assay; settings: OVCAR-4, 48 h
[40] = system: LOX IMVI; assay: Growth inhibition of human LOXIMVI cells after 48 hrs by sulforhodamine B assay
[41] = system: NCI-H23; assay: Growth inhibition of human NCI-H23 cells after 48 hrs by sulforhodamine B assay; settings: NCI-H23, 48 h
[42] = system: SW-620; assay: Growth inhibition of human SW620 cells after 48 hrs by sulforhodamine B assay; settings: SW-620, 48 h
[43] = system: HCT-15; assay: Growth inhibition of human HCT15 cells after 48 hrs by sulforhodamine B assay; settings: HCT-15, 48 h
[44] = system: SK-MEL-2; assay: Growth inhibition of human SK-MEL-2 cells after 48 hrs by sulforhodamine B assay; settings: SK-MEL-2, 48 h
[45] = system: NCI-H226; assay: Growth inhibition of human NCI-H226 cells after 48 hrs by sulforhodamine B assay; settings: NCI-H226, 48 h
[46] = system: MDA-MB-231; assay: Growth inhibition of human MDA-MB-231 cells after 48 hrs by sulforhodamine B assay; settings: MDA-MB-231, 48 h
[47] = system: TK-10; assay: Growth inhibition of human TK10 cells after 48 hrs by sulforhodamine B assay; settings: TK-10, 48 h
[48] = system: A498; assay: Growth inhibition of human A498 cells after 48 hrs by sulforhodamine B assay; settings: A498, 48 h
[49] = system: SNB-19; assay: Growth inhibition of human SNB19 cells after 48 hrs by sulforhodamine B assay; settings: SNB-19, 48 h
[50] = system: SK-OV-3; assay: Growth inhibition of human SKOV3 cells after 48 hrs by sulforhodamine B assay; settings: SK-OV-3, 48 h
[51] = system: DU-145; assay: Growth inhibition of human DU145 cells after 48 hrs by sulforhodamine B assay; settings: DU-145, 48 h
[52] = system: OVCAR-8; assay: Growth inhibition of human OVCAR8 cells after 48 hrs by sulforhodamine B assay; settings: OVCAR-8, 48 h
[53] = Growth inhibition of human EKVX cells after 48 hrs by sulforhodamine B assay
[54] = system: MDA-MB-468; assay: Growth inhibition of human MDA-MB-468 cells after 48 hrs by sulforhodamine B assay; settings: MDA-MB-468, 48 h
[55] = system: M14; assay: Growth inhibition of human M14 cells after 48 hrs by sulforhodamine B assay; settings: M14, 48 h
[56] = system: NCI-H322M; assay: Growth inhibition of human NCI-H322M cells after 48 hrs by sulforhodamine B assay

COc1ccc(-c2c(-c3cc(OC)c(OC)c(OC)c3)noc2N)cc1
GI50 [1]: < 10 nM
GI50 [2]: 10.6 nM
GI50 [3]: < 10 nM
GI50 [4]: < 10 nM
EC [5]: 0.005 µM
GI50 [6]: < 10 nM
GI50 [7]: < 10 nM
EC [8]: 0.002 µM
GI50 [9]: < 10 nM
GI50 [10]: < 10 nM
EC [11]: 0.5 µM
GI50 [12]: < 10 nM
GI50 [13]: < 10 nM
GI50 [14]: 19.3 nM
GI50 [15]: 13400 nM
GI50 [16]: < 10 nM
GI50 [17]: < 10 nM
GI50 [18]: < 10 nM
GI50 [19]: < 10 nM
GI50 [20]: < 10 nM
GI50 [21]: 32.8 nM
GI50 [22]: < 10 nM
GI50 [23]: < 10 nM
GI50 [24]: 27.4 nM
GI50 [25]: < 10 nM
GI50 [26]: < 10 nM
GI50 [27]: < 10 nM
GI50 [28]: 15.1 nM
GI50 [29]: < 10 nM
GI50 [30]: 46.6 nM
GI50 [31]: < 10 nM
GI50 [32]: 14.4 nM
GI50 [33]: < 10 nM
GI50 [34]: < 10 nM
GI50 [35]: < 10 nM
GI50 [36]: < 10 nM
GI50 [37]: < 10 nM
GI50 [38]: < 10 nM
GI50 [39]: 14.5 nM
GI50 [40]: < 10 nM
GI50 [41]: 14.9 nM
GI50 [42]: < 10 nM
GI50 [43]: < 10 nM
GI50 [44]: 18.8 nM
GI50 [45]: 24.4 nM
GI50 [46]: 31.9 nM
GI50 [47]: 10500 nM
GI50 [48]: < 10 nM
GI50 [49]: 25.1 nM
GI50 [50]: < 10 nM
GI50 [51]: 13.5 nM
GI50 [52]: 13.9 nM
GI50 [53]: 15200 nM
GI50 [54]: < 10 nM
GI50 [55]: < 10 nM
GI50 [56]: 56.7 nM
